The record followed here is patent US12383544B2, “Methods for the treatment of polycystic kidney disease” (Galapagos NV, priority 2019, dated 2025).

In assay [1] the target is T1, wild type human CFTR (Homo sapiens, UniProt P13569).
T1 construct: expressed in transfected cells; host or cells: HEK293
Nature of the assay: Yellow Fluorescent Protein (YFP) halide assay in wild type CFTR (HEK293 cells). The class given is cell-based. Conditions: HEK293 cells transfected with wild type human CFTR; 24 h incubation; 10 μM forskolin; read-out: EC50 of inhibition of WT CFTR. How it is done: To evaluate the ability of a test compound to inhibit wild type CFTR, a YFP halide assay using HEK293 cells transfected with wild type human CFTR was developed. (Galietta, Jayaraman, and Verkman 2001) Cells were incubated during 24 h with a dose range of test compound and the resulting wild type CFTR activity was plotted to obtain the EC50.
Test compounds were also added together with forskolin to wild type CFTR expressing cells in order to fully active the available CFTR at the plasma membrane and determine accurately the inhibition of the channel activity.
HEK293 cells were transfected with 10 to 80 ng of wild type CFTR and 20 ng of plasmid encoding YFP (H148Q/I152L/F47L) using jetPEI (Polyplus transfection). Directly after transfection, cells were seeded in black 96-well plates coated with Poly-D-lysine at a density of 70,000 cells per well. The next day, cells were treated with corrector(s) for 24 h. After this incubation period, cells were washed twice with DPBS with Ca^2+ and Mg^2+. Subsequently, cells were treated with 10 μM forskolin and the desired concentration of potentiator in a volume of 40 μl and incubated at room temperature for 10 min, a time point optimized in previous experiments resulting in a good window (positive control/negative control >2) and signal to background ratio. YFP fluorescence was measured using an EnVision plate reader (PerkinElmer). […]

The target in assay [2] is T2, wt CFTR (CFTR channel) (Homo sapiens, UniProt P13569).
T2 construct: evaluate compounds on normal primary bronchial epithelial cells (HBE cells); endogenous in cells; host or cells: normal primary human bronchial epithelial (HBE) cells from donor lungs
Nature of the assay: TECC assay on normal primary human bronchial epithelial (HBE) cells. The class given is cell-based. Conditions: 0.3 μM forskolin. How it is done:
The TECC assay is used to evaluate compounds on normal primary bronchial epithelial cells (HBE cells), which are closer to physiological conditions
Bronchial epithelial cells isolated from transplanted lungs from normal (wt CFTR) were isolated from lungs obtained from donors undergoing a planned transplantation. These primary cells were cultured directly on type IV collagen-coated polycarbonate Transwell supports with a diameter of 6.5 mm and pore size of 0.4 μm (Costar, #3397) for 18 to 25 days in air liquid (ali) interface essentially as previously described for TECC. (Fulcher et al. 2005)
Trans-epithelial clamp circuit (TECC) recordings were performed using the TECC instrument developed and sold by EP Design (Bertem, Belgium). During the recording, the epithelial cells were bathed in a NaCl-Ringer solution (120 mM NaCl, 20 mM HEPES, 1.2 mM CaCl2, 1.2 mM MgCl2, 0.8 mM KH2PO4, 0.8 mM K2HPO4, 5 mM glucose, pH 7.4) on both the basolateral (640 μl) and the apical side (160 μl) and kept at 37° C. Apical amiloride was used to inhibit the endogenous ENaC currents (100 μM) while forskolin (0.3 μM) was applied on both the apical and basolateral sides to stimulate CFTR. All triggers and compounds used during the experiment were first dissolved in DMSO to a 1000× concentrated solution, just prior to treatment a 10× stock was prepared in the NaCl-Ringer solution which was used for addition of the correct concentration of trigger and or compound during the experiment. Cells were treated with test compounds for 24 hours before recording and this treatment was repeated in the TECC buffer prior to the electrophysiological recording. Measurements were done during a 20-min timeframe with recordings every 2 min. The transepithelial potential (PD) and transepithelial resistance (Rt) were measured in an open circuit and transformed to Ieq using Ohm's law. The maximal increase in Ieq (Δ Ieq) was used as a measure for the increased CFTR activity.

The test system of assay [3] is PKD1^flox/flox / ubiquitous CreER^T2 mice. Nature of the assay: In vivo ADPKD mice model in combination with tolvaptan (meta-analysis of two experiments). The source says: The ADPKD mice model is based on PKD1^flox/flox (with lox sites flanking exons 2-4)/ubiquitous CreER^T2 mice in which the PKD1 gene is ubiquitously knock-out by the activation of the Cre recombinase by treatment of the mice with Tamoxifen at day 12 after birth (in nursing female). Homozygotous knock-out of the PKD1 gene leads to the rapid formation of kidney cysts mimicking to a certain extend the development of ADPKD disease in human.
Before experimentations, mouse colonies of PKD1^flox/flox (with lox sites flanking exons 2-4)/ubiquitous CreER^T2 were maintained at Charles River Laboratories (France). To induce Cre recombinase activity, tamoxifen (60 mg/kg in sunflower oil) was delivered in nursing females by intraperitoneal injection at postnatal day 12. Subsequently, tamoxifen-containing milk was administered to pups. Treatments started at 4 weeks of age for 11 weeks. Tolvaptan was incorporated in diet (0.1%) and given alone or in combination with Cpd 2, administered at 250 mg/kg, q. d., p.o. At initiation of treatment and on a regular basis during the study, serum was collected to determine levels of blood urea nitrogen (BUN) on a Spotchem bioanalyzer. At necropsy, kidneys were collected and weighed to determine kidney weight/body weight ratio.
Two independent experiments were conducted.
A two-way ANOVA with Dunnett post-hoc multiple comparisons of all experimental groups versus the diseased group has been applied to the log Fold Change (log FC) of BUN ([…]) at sacrifice (Week 15) versus BUN at Week 4 as function of Group and Study.
The mean fold change at week 15 (sacrifice) vs week 4 (treatment initiation) is calculated, assuming a 100% change for the diseased group (untreated).

T2 sequence (P13569 whole entry): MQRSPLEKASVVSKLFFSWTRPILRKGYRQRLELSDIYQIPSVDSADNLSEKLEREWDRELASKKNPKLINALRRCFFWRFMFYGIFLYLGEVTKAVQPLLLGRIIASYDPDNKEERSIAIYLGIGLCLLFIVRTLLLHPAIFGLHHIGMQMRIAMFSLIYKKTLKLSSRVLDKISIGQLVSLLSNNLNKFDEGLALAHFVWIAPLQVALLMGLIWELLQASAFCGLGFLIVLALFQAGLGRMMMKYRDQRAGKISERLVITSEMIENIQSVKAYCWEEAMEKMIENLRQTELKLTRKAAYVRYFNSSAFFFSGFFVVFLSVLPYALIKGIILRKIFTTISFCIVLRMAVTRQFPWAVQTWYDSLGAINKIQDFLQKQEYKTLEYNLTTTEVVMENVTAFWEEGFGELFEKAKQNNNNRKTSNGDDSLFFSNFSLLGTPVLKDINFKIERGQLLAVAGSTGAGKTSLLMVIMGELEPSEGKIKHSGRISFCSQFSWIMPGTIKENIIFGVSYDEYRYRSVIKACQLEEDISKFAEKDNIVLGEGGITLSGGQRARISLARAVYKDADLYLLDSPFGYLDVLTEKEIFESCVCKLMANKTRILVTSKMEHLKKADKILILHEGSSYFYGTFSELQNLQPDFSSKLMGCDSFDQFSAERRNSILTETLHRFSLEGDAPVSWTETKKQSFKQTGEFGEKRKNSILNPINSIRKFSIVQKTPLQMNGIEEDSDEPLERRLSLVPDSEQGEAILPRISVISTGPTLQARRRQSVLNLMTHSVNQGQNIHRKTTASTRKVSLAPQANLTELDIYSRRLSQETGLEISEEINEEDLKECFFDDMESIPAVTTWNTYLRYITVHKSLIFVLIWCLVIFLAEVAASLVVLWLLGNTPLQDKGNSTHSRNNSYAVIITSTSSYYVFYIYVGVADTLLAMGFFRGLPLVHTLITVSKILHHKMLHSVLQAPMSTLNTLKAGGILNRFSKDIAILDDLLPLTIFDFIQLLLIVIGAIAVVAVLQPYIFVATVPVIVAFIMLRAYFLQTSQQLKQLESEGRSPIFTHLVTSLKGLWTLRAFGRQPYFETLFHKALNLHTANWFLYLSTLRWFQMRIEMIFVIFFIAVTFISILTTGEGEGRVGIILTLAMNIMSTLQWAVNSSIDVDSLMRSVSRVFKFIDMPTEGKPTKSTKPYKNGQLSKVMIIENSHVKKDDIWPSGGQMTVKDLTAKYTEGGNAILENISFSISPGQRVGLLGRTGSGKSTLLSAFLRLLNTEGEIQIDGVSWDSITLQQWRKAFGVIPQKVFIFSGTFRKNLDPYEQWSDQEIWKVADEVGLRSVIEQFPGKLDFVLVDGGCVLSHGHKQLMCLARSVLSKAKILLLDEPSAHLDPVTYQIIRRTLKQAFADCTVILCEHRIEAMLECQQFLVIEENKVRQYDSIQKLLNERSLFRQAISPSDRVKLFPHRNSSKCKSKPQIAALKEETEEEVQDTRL
T1 sequence (P13569 whole entry): as above

`COC1CCN(C2CCN(c3cc(C(=O)NS(=O)(=O)N(C)C)nc4c3c(C3CCC3)nn4-c3ccc(F)cc3)CC2)CC1` [Cpd 2]: in assay [1], the EC50 worked out at 102 nM. This molecule also displayed a pIC50 in assay [2] of 7.50. For the same molecule, the IC50 in assay [2] (read-out: IC50 value (resulting from pIC50) (converted)) was 32 nM.
With `Cc1ccccc1C(=O)Nc1ccc(C(=O)N2CCCC(O)c3cc(Cl)ccc32)c(C)c1` (stereo not drawn) [Tolvaptan, tolvaptan], in assay [3] (Cpd 2 250 mg/kg q.d. p.o., Tolvaptan 0.1% in diet, treatment from 4 weeks of age for 11 weeks), the “BUN Mean fold changes on week 15 vs week 4” value is on record as 1.889. In assay [3] (administered from week 4 to week 15), the “BUN fold change vs the diseased group (in words)” value is given as “did not result in a significant fold change”. The “BUN % of Mean Diseased fold change” value in assay [3] (week 15 vs week 4, diseased group = 100, Cpd 2 250 mg/kg q.d. p.o., Tolvaptan 0.1% in diet) is on record as 80.7%.
